We go through 1 compound from article PMC9320886, “Daily Intraperitoneal Administration of Rosiglitazone Does Not Improve Lung Function or Alveolarization in Preterm Rabbits Exposed to Hyperoxia” (Pharmaceutics, 2022).

Each structure is given as a SMILES string. Like-named read-outs stand apart in the source and are kept apart here.

Data set [1] in a line: lung tissue binding by equilibrium dialysis. The data set is classed as in vitro ADME. Particulars: preterm rabbit lung homogenate, 4 h, 37 °C. On the procedure:
In vitro lung tissue binding was also determined by equilibrium dialysis as described above. Preterm rabbit lungs (New Zealand White, BIOIVT) were homogenized using a Precellys tissue homogenizer (Bertin instruments, Montigny-le-Bretonneux, France). Precellys lysing vials (CK28-R, Bertin instruments) were filled with lung and buffer according to the following proportion: 1 g of tissue and 5 mL of ice-cold PBS (dilution 1:6). At the end of the homogenization process, a pool of lung homogenate was prepared mixing equal amount of homogenate from three different donors. Test compounds and the positive control were diluted in the pooled lung homogenate to a final concentration of […] and then dispensed into the red chamber of the RED device inserts. PBS was dispensed into the other side. Upon completion of 4 h of incubation (37 °C under shaking), equal aliquots were removed from each chamber and matrix matched with even volumes of lung homogenate or buffer for LC-MS/MS analyses.
Free and Bound percentages of the compounds were calculated as follows:(3) %Free=Area buffer sample/Area lung homogenate sample×100 (4) % Bound=100−%Free

Data set [2] in a line: Caco-2 permeability assay. The data set is classed as in vitro ADME. Conditions: human, apical to basolateral. How it is done:
Caco-2 cells were purchased from ReadyCell (Barcelona, Spain). The cells arrived already seeded and differentiated (21-days) in 96-well plates (CacoReady 96-well kits, ReadyCell). Cells were maintained in a cell culture medium: Dulbecco’s modified Eagle’s medium (DMEM) 1 g/L glucose containing 10% fetal bovine serum, 1% L-glutamine 200 mM, and 1% penicillin (10,000 U/mL)–streptomycin (10 mg/mL), all from Merck KGaA. The buffer used in the assay was Hanks Balanced Salt Solution (HBSS, Merck). Control compounds were: sulpiride (low permeability control), metoprolol (high permeability control), talinolol (P-glycoprotein transport (Pgp) substrate control), and GF120918 (Elacridar, Pgp inhibitor), all purchased from Merck KGaA.
The day of the experiment, the integrity of the cell monolayers was assessed before and after the assay by measuring the transepithelial electrical resistance (TEER). The permeability of the compounds across the cell monolayer was determined by measuring their transport in both directions: apical to basolateral (A → B) and basolateral to apical (B → A) in the absence and presence of Elacridar (a known P-gp inhibitor). The donor working solution was prepared by dilution of the DMSO stock of the test compound or positive control with HBSS (pH 7.4) to 10 µM. For A → B directional transport, the donor working solution (with test compound or positive control, with or without P-gp inhibitor) was added to the apical (A) and HBSS was added to the basolateral (B) compartment. For B → A directional transport, the donor working solution (with positive control or test compound […], with or without P-gp inhibitor) was added to the basolateral (B) and HBSS was added to the apical (A) compartment. The assay was performed with a Hamilton Star Lab robotic system. Samples were collected at t0 and 2 h after incubation (5% CO2, 95% relative humidity, 37 °C) for LC-MS/MS analyses.
Apparent permeability (Papp) was calculated with the following equation: (5) Papp(cm/sec)=(Vr/C0)×(1/A)×(Cr(t)/t) where Vr is the volume of the solution in the receiving compartment (mL); C0 is the initial test compound concentration in the donor compartment (expressed as area ratio); A is the membrane surface area (0.14 cm^2); Cr (t) is the measured concentration of the receiver well at time t120 (expressed as area ratio); and t is time of incubation (sec).
A general note: Caco-2 cells form a polarised layer with tight junctions and transporters.

Details of data set [3]: method as in PMID 20729387. Particulars: newborn mice, mothers received two antenatal doses of 3 mg/kg 48 and 72 h prior to delivery; cited from earlier work.
For the next data set, the system named is premature rabbits. Set-up: method as in PMID 26375032. Particulars: 3 mg/kg i.m. to the mothers 24 and 48 h prior to delivery; cited from earlier work.
Data set [4] deals with neonatal rats exposed to hyperoxia. On the set-up: method as in PMID 19304912. Conditions: hyperoxia (95% O2), 1 or 3 mg/kg for 7 days; cited from earlier work.
Data set [5] is described as follows: pharmacokinetic profiling in preterm rabbits. The data set is classed as in vivo. Conditions: rabbit. How it is done: A total of 30 preterm rabbits with a GA of 28 days were featured in the pharmacokinetic study. […] Surviving pups were randomized to either receive an intratracheal (IT, local delivery, n = 15) or intraperitoneal (IP, systemic delivery, n = 15) dose of 1 mg/kg of RGZ. For IP injections, RGZ (10 mg/mL in DMSO) was dissolved in H2O + 10% Tween-80 at 0.4 mg/mL and then injected in the right flank based on the pups’ body weight. For IT injections, RGZ (50 mg/mL in DMSO; Merck KGaA) was dissolved in 80 mg/mL of Poractant alfa (Curosurf, Chiesi Farmaceutici, Parma, Italy) at 0.4 mg/mL; the injection volume was based on the pups’ body weight (2.5 mL/kg), as previously described.
Before sample collection, all pups were euthanized with a pentothal sodium overdose. All samples were stored at −20 °C until analysis.
Bioanalysis and quantification were performed using a fit-for-purpose LC/MS/MS method developed internally (LC and MS conditions already described in Section 2.2). Plasma and lung homogenate samples (lungs were homogenized with a water/acetonitrile 50/50 mixture) were extracted by means of protein precipitation with 3 volumes of acetonitrile (Sigma-Aldrich Co, St. Louise, MO, USA), and the supernatant was directly injected into the LC/MS/MS system.
The plasma and lung concentrations of RGZ were determined using a calibration curve prepared in the corresponding blank rabbit matrix (range of calibration: 2–500 ng/mL for plasma; 12–6000 ng/g for lungs) and the accuracy of the quantitation was verified using quality controls prepared in the same matrix and back-calculated on the curve.
Pharmacokinetic parameters were calculated by non-compartmental analysis using Phoenix WinNonlin (Certara L.P., Princeton, NJ, USA). The following PK parameters were calculated: Tmax, time of the maximum concentration; Cmax, maximum concentration; t1/2, half-life (calculable only in case of well-defined elimination phase); AUClast, area under the curve up to the last time point.

Where [6] appears, read: inhaled or intranasal, plasma, intratracheal 1 mg/kg.
[7] abbreviates: ip, plasma, intraperitoneal 1 mg/kg.

What is called Papp A→B is how fast a substance crosses the layer from the apical side. A word on the half-life: it is the time in which the quantity being followed falls by half. Low values mean fast loss, high ones slow loss. Usually AUC(0-t) stands for exposure summed from dosing to a finite time, without extrapolation to infinity. Usually Cmax stands for the highest concentration seen after dosing. Usually Tmax stands for the time from dosing to the highest level. With `CN(CCOc1ccc(CC2SC(=O)NC2=O)cc1)c1ccccn1` (centres unmarked) [RGZ, rosiglitazone], the “Lung Tissue Binding (%)” value in data set [1] is listed as 94.2 ± 0.7%. Also, the Papp A→B at 2 h, 10 µM turned out to be 16.3 ×10⁻⁶ cm/s in data set [2] (Caco-2, pH 7.4, with Elacridar (GF120918), concentration not given, with Elacridar, read-out: Papp with Pgp Inhibitor (A–B)) and 14.5 ×10⁻⁶ cm/s in data set [2] (Caco-2, pH 7.4, 10 µM, 2 h, without Pgp inhibitor, read-out: Papp (A–B)). Also, the plasma levels in data set [3] is 350 ng/mL. Moreover, the “hyperoxic lung injury at PND 7” value with premature rabbits was “attenuated”. Moreover, in data set [4], the “RAC and alveolar septal thickness” value is “significantly improved”. The half-life in data set [5] (inhaled or intranasal, lung, intratracheal 1 mg/kg) is 900 min. Besides, the AUC(0-t) in data set [5] (setting [6]) came out at 25800 ng·h/mL. Besides, the Cmax in data set [5] (setting [6]) is 1950 ng/mL; in data set [5] (ip, lung, intraperitoneal 1 mg/kg), 1020 ng/g; in data set [5] (setting [7]), 2440 ng/mL. Moreover, the Tmax in data set [5] (setting [6]) and in data set [5] (setting [7]) was 15 min throughout. In addition, the Kp in data set [5] (lung and plasma, ip, intraperitoneal 1 mg/kg, read-out: AUCLung/AUCPlasma) is 0.7.
